Laboratory results: paper PMC6982951, “The N’-Substituted Derivatives of 5-Chloro-3-Methylisothiazole-4-Carboxylic Acid Hydrazide with Antiproliferative Activity” (Molecules, 2019)
Where “and” joins values, the source holds several entries; their conditions need not be identical. Equal values may be shown once. Entries after “also recorded” stand apart in the source; their conditions may differ. Read-outs that look alike come from different tables or passages of the source.

Assays:
[1] = tested on: LoVo (human colon adenocarcinoma, sensitive); assay: SRB antiproliferative assay, 72 h exposure; type: cell-based; settings: for IC50: read-out: IC50 ± SD LoVo
Text: (§1) Established in vitro, human cell lines MV4-11 (human biphenotypic B myelomonocytic leukemia), MCF-7 (breast cancer), LoVo (colon cancer), LoVo/DX (colon cancer drug resistant), and MCF-10A (normal breast epithelial) were used. The lines were obtained from the American Type Culture Collection (lines MV4-11, LoVo, LoVo/DX, MCF-10A; Rockville, MD, USA) or from the European Collection of Authenticated Cell Cultures (line MCF-7) and are being maintained at the Hirszfeld Institute of Immunology and Experimental Therapy PAS, Wroclaw, Poland.
(§2) MV4-11 cells were cultured in the RPMI 1640 medium (HIIET PAS, Poland) supplemented with 1.0 mM sodium pyruvate, 2 mM L-glutamine and 10% FBS (all from Sigma Aldrich, Steinheim, Germany), LoVo cells were cultured in the F-12K medium (Life Technologies, Carlsbad, CA, United States) supplemented with 10% FBS (GE Healthcare, Chicago, IL, USA), and LoVo/DX cells were cultured in the mixture of RPMI 1640+OptiMEM (1:1) medium (HIIET PAS) supplemented with 5% FBS (GE Healthcare, Chicago, IL, USA), 2 mM L-glutamine, 1.0 mM sodium pyruvate (all from Sigma Aldrich, Steinheim, Germany) and 0.1 µg/mL doxorubicin chloride (Accord).
(§3) Test solutions of the compounds tested (50 mM) were prepared by dissolving the substances in DMSO (Sigma Aldrich). Afterwards, the tested compounds were diluted in a culture medium to reach the final concentrations at the range of 1-80 μg/mL (250, 125, 25 and 5 μM).
(§4) Twenty-four hours prior to the addition of the tested compounds, the cells were plated in 96-well plates (Sarstedt, Germany) at a density of 1 × 10^4 or 0.75 × 10^4 (MCF-7) cells per well. The assay was performed after 72 h of exposure to varying concentrations of the tested agents. The in vitro cytotoxic effect of all agents was examined using the MTT (MV4-11) or SRB assay. The results were calculated as IC50 (inhibitory concentration 50%) the concentration of tested agent, which is cytotoxic for 50% of the cancer cells. Each compound in each concentration was tested in triplicate in a single experiment, which was repeated 3–4 times.
(§5) This technique was applied for the cytotoxicity screening against cells growing in adherent culture. The details of this technique were described by Skehan et. al.. The cytotoxicity assay was performed after 72 h exposure of the cultured cells to varying concentrations of the tested agents. The cells attached to the plastic were fixed by gently layering cold 50% TCA (trichloroacetic acid, Sigma Aldrich) on the top of the culture medium in each well. The plates were incubated at 4 °C for 1 h and then washed five times with tap water. The cellular material fixed with TCA was stained with 0.1% sulforhodamine B (SRB, Sigma Aldrich) dissolved in 1% acetic acid (POCh) for 30 min. Unbound dye was removed by rinsing (4×) with 1% acetic acid. The protein-bound dye was extracted with 10 mM unbuffered Tris base (Sigma Aldrich) for determination of optical density (at 540 nm) on Synergy H4 photometer (BioTek Instruments). The background optical density was measured in the wells filled with culture medium, without the cells.

[2] = tested on: MCF-10A (normal non-tumorigenic epithelial cell line derived from mammary gland); assay: SRB cytotoxicity assay, 72 h exposure; type: cell-based, human; settings: for IC50: read-out: IC50 ± SD MCF-10A; for cytotoxicity against normal MCF-10A cells relative to cancer MCF-7 cells: MCF-10A versus MCF-7
Text: as §1
(§6) MCF-7 cells were cultured in the Eagle’s medium (HIIET PAS, Poland) supplemented with 10% FBS, 8 µg/mL insulin, 2 mM L-glutamine and 1% MEM-non essential amino acid solution 100X (all from Sigma Aldrich, Steinheim, Germany). MCF-10A cells were cultured in the HAM’S F-12 with L-glutamine medium (Corning) supplemented with 10% Hors Serum (Gibco), 10 µg/mL insulin, 0.5 µg/mL hydrocortisone, 20 ng/mL EGFh and 0.05 mg/mL Cholera Toxin from Vibrio cholerae (all from Sigma Aldrich, Steinheim, Germany). All culture mediums were supplemented with 100 units/mL penicillin (Polfa Tarchomin S.A. Poland), and 100 µg/mL streptomycin (Sigma Aldrich). All cell lines were grown at 37 °C with 5% CO2 humidified atmosphere.
as §3, §4, §5

[3] = tested on: MV4-11 (human biphenotypic B cell myelomonocytic leukemia); assay: MTT antiproliferative assay, 72 h exposure; type: cell-based; settings: for IC50 / IC50 ± SD: MV4-11, MTT, 72 h, n.a. = no activity in a concentration of 1–80 μg/mL; for inhibition at 80 µg/mL: MV4-11, compound concentration 80 μg/mL, read-out: inhibition of cell proliferation; for antiproliferative activity (in words): MV4-11 leukemia cells
Text: as §1, §2, §3, §4
This technique was applied for cells growing in suspension culture. An assay was performed after 72 h exposure to varying concentrations of the tested agents. For the last 4 h of incubation, 20 µL of MTT solution was added to each well (MTT: 3-(4,5-dimethylthiazol-2-yl)-2,5-diphenyl tetrazolium bromide; stock solution: 5 mg/mL, Sigma Aldrich). When the incubation time was completed, 80 µL of the lysing mixture was added to each well (lysing mixture: 225 mL dimethylformamide, POCh, Gliwice, Poland, 67.5 g sodium dodecyl sulfate, Sigma Aldrich, and 275 mL of distilled water). After 24 h, when formazan crystals had been dissolved, the optical densities of the samples were read on Synergy H4 photometer (BioTek Instruments, USA) at 570 nm wavelength. The background optical density was measured in the wells filled with culture medium, without the cells.

[4] = tested on: LoVo/DX (human colon adenocarcinoma, resistant to doxorubicin); assay: SRB antiproliferative assay, 72 h exposure; resistance index; type: cell-based; settings: for IC50 / IC50 ± SD LoVoDX: LoVo/DX, 72 h, SRB; for IC50: read-out: IC50 ± SD LoVoDX; for RI (resistance index): IC50 against LoVo/DX divided by IC50 against LoVo
Text: as §1, §2, §3, §4
The resistance indexes (RI) were calculated by dividing the IC50 values of the compounds tested against the cells of drug resistant cell LoVo/DX line by respective values obtained against the cells of drug sensitive LoVo line (Table 2). According to Harker et al., three categories of the cells could be distinguished: (a) the cells are drug-sensitive if the ratio approaches 0–2; (b) the cells are moderately drug-resistant if the ratio ranges from 2 to 10; (c) the cells are markedly drug-resistant if the ratio is higher than 10.
as §5

[5] = tested on: MCF-7 (breast adenocarcinoma); assay: SRB antiproliferative assay, 72 h exposure; type: cell-based, human; settings: MCF-7, SRB; for IC50: read-out: IC50 ± SD MCF-7
Text: as §1, §6, §3, §4, §5

[6] = Homo sapiens, MCF-10A normal cells, SRB, 72 h
[7] = MCF-10A normal cells, SRB, 72 h

Row | SMILES | IC50 ([1]; Homo sapiens) | IC50 [2, 6] | IC50 ([3]; Homo sapiens, MV4-11, 72 h) | IC50 ([4]; Homo sapiens) | RI (resistance index) [4] | IC50 ([5]; Homo sapiens, MCF7, 72 h) | melting point [°C] | antiproliferative activity (in words) [3] | further results
1 | Cc1nsc(Cl)c1C(=O)N/N=C/c1cccc(Cl)c1 [Compound 4, 5-Chloro-N’-[(E)-(3-chlorophenyl)methylidene]-3-methylisothiazole-4-carbohydrazide] | 59.4 ± 3.4 µM | 24.6 µg/mL and 78.5 µM | 15.2 µg/mL and 48.4 µM | 47.9 ± 3.7 µM | 0.81 | 48.6 ± 5.7 µM | 174 to 175 | – | IC50 ± SD LoVo [1]: 18.6 ± 1.1 µg/mL; IC50 ± SD LoVoDX [4]: 15 ± 1.1 µg/mL; IC50 ± SD MCF-7 [5]: 15.2 ± 1.8 µg/mL
2 | Cc1ccccc1/C=N/NC(=O)c1c(C)nsc1Cl [Compound 10, 5-Chloro-N’-[(E)-(2-methylphenyl)methylidene]-3-methylisothiazole-4-carbohydrazide] | – | – | > 80 µg/mL | – | – | – | 226 to 228 | very poor activity | inhibition at 80 µg/mL ([3]; Homo sapiens): 47%
3 | Cc1ccc(/C=N/NC(=O)c2c(C)nsc2Cl)c(C)c1 [Compound 9, 5-Chloro-N’-[(E)-(2,4-dimethylphenyl)methylidene]-3-methylisothiazole-4-carbohydrazide] | – | – | > 80 µg/mL | – | – | – | 232 to 234 | very poor activity | cytotoxicity against normal MCF-10A cells relative to cancer MCF-7 cells [2]: about three times less cytotoxic; inhibition at 80 µg/mL ([3]; Homo sapiens): 42.5%
4 | Cc1nsc(Cl)c1C(=O)O [Compound 1, 5-Chloro-3-methylisothiazole-4-carboxylic acid] | – | – | – | – | – | – | – | no antiproliferative activity; also recorded: devoid of any anticancer activity | –
5 | N.N.[Cl][Pt][Cl] [Cisplatin, reference compound] | – | – | – | – | 0.49 | – | – | – | IC50 ± SD LoVo [1]: 1.7 ± 0.8 µg/mL; IC50 [1]: 5.6 ± 2.6 µM; IC50 ± SD MCF-10A [2, 7]: 2.9 ± 0.4 µg/mL; IC50 [2, 7]: 9.7 ± 1.4 µM; IC50 [3]: 1.28 ± 0.45 µM; IC50 ± SD [3]: 0.38 ± 0.14 µg/mL; IC50 ± SD LoVoDX [4]: 0.84 ± 0.17 µg/mL; IC50 [4]: 2.8 ± 0.6 µM; IC50 ± SD MCF-7 [5]: 1.56 ± 0.3 µg/mL; IC50 [5]: 5.2 ± 1 µM
6 | CCc1ccc(/C=N/NC(=O)c2c(C)nsc2Cl)cc1 [Compound 6, 5-Chloro-N’-[(E)-(4-ethylphenyl)methylidene]-3-methylisothiazole-4-carbohydrazide] | 31.7 µg/mL and 97.7 µM | 40.6 µg/mL and 125 µM | 21.3 µg/mL and 69.4 µM | 28.8 µg/mL and 88.8 µM | 0.91 | 13.9 µg/mL and 42.9 µM | 152 to 154 | – | –
7 | Cc1nsc(Cl)c1C(=O)NN [Compound 2, 5-Chloro-3-Methylisothiazole-4-Carbohydrazide] | – | – | > 80 µg/mL | – | – | – | – | very poor activity; also recorded: devoid of any anticancer activity | inhibition at 80 µg/mL ([3]; Homo sapiens): 45%
8 | Cc1nsc(Cl)c1C(=O)N/N=C/c1cccc([N+](=O)[O-])c1 [Compound 5, 5-Chloro-N’-[(E)-(3-nitrophenyl)methylidene]-3-methylisothiazole-4-carbohydrazide] | 22.7 µg/mL and 73.4 µM | 60.8 µg/mL and 197 µM | 18.7 µg/mL and 57.7 µM | 29.2 µg/mL and 94.6 µM | 1.29 | 20.1 µg/mL and 65.1 µM | 199 to 200 | – | cytotoxicity against normal MCF-10A cells relative to cancer MCF-7 cells [2]: about three times less cytotoxic
9 | Cc1nsc(Cl)c1C(=O)N/N=C/c1ccccc1 [Compound 8, 5-Chloro-N’-[(E)-phenylmethylidene]-3-methylisothiazole-4-carbohydrazide] | – | – | 36.6 µg/mL and 131 µM | – | – | – | 164 to 165 | – | cytotoxicity against normal MCF-10A cells relative to cancer MCF-7 cells [2]: about three times less cytotoxic
10 | Cc1nsc(Cl)c1C(=O)N/N=C/C=C/c1ccccc1 [Compound 3, 5-Chloro-N’-[(1E,2E)-3-phenylprop-2-en-1-ylidene]-3-methylisothiazole-4-carbohydrazide] | 25 ± 5.5 µM | 20.9 µg/mL and 68.6 µM | 4.4 µg/mL and 14 µM | 34.2 ± 2.3 µM | 1.37 | 39.3 ± 6.3 µM | 180 to 181 | – | IC50 ± SD LoVo [1]: 7.64 ± 1.7 µg/mL; activity (IC50 value) towards MCF-10A normal cell line relative to cancer cells ([2]; MCF-10A versus cancer cells): almost two times lower activity; IC50 ± SD [3]: 4.3 ± 1.9 µg/mL; IC50 ± SD LoVoDX [4]: 10.4 ± 0.7 µg/mL; IC50 ± SD MCF-7 [5]: 12 ± 1.9 µg/mL
11 | Cc1nsc(Cl)c1C(=O)N/N=C/c1ccccc1Cl [Compound 11, 5-Chloro-N’-[(E)-(2-chlorophenyl)methylidene]-3-methylisothiazole-4-carbohydrazide] | – | – | – | – | – | – | 232 to 233 | no antiproliferative activity | –
12 | COc1cccc(/C=N/NC(=O)c2c(C)nsc2Cl)c1 [Compound 7, 5-Chloro-N’-[(E)-(3-methoxyphenyl)methylidene]-3-methylisothiazole-4-carbohydrazide] | 27.8 µg/mL and 90.5 µM | 56 µg/mL and 182 µM | 22.4 µg/mL and 72.3 µM | 20 µg/mL and 65 µM | 0.72 | 17.8 µg/mL and 58 µM | 139 to 140 | – | antiproliferative activity relative to phenyl derivative 8 ([3]; fold higher than compound 8): 1.5–2 times
